Measured values taken from patent publication US20040242565A1, “Medicinal composition for prevention of or treatment for cerebrovascular disorder and cardiopathy” (priority 2001, published 2004).
Read-outs that look alike come from different tables or passages of the source.

What was measured:
Assay type in all cases: in vivo
[1] = system: Vasopressin Induced Rat Angina Pectoris Model; conditions: half an hour before vasopressin 0.5 U/kg i.v., separate administration
Experimental: Half an hour later, vasopressin (0.5 U/kg) was intravenously administered. The ST segment depression was used as an index showing the degree of a myocardial ischemia. […] ST segment in an electrocardiogram was measured for comparison with a ST segment before the vasopressin administration. […] In addition, occurrence of a myocardial ischemia was observed.

[2] = system: Dog Delayed Cerebral Vasospasm Model; assay: Effect on dog delayed cerebral vasospasm model (basilar artery diameter by angiography); conditions: seventh day, separate administration
Experimental: An adult mongrel dog was anesthetized with pentobarbital and 5 ml of autologous blood was injected into cisterna magna (on the first day). On the third day, 5 ml of autologous blood was injected into cisterna magna under thiamyral anesthesia. Before the injection of autologous blood on the first day and on the seventh day, angiographin was injected into vertebral artery, followed by photographing blood vessel of basilar artery. […] As a control, physiological saline was administered into vein over 30 minutes continuously. After the administration of each drug, the blood vessel was photographed to measure the diameter of basilar artery.

[3] = system: Rat Cerebral Infarction Model; assay: Inhibitory effect of cerebral infarction in rat cerebral infarction model (brain microthromboembolism); conditions: 10 mg/kg intraperitoneally once a day until the fourth day, separate administration
Experimental: A rat brain microthromboembolism model described in Stroke, 31, 2245-2255 (2000) was used as a cerebral infarction model. […] After the model was prepared, each drug was administered once a day until the fourth day. On the fifth day, the brain was extracted and the size of a cerebral infarction was histopathologically measured.

## isosorbide nitrate
[1]; isosorbide nitrate 30 mg/kg orally
  improvement of ST segment depression (index of myocardial ischemia): not improved

## COCCOC(=O)C1=C(C)NC(C)=C(C(=O)OC(C)C)C1c1cccc([N+](=O)[O-])c1 (centres unmarked) [Nimodipine, nimodipine]
[2]; 0.1 mg/kg into vein over 30 minutes
  Basilar artery diameter (diameter before blood injection: 100%): 55.7%
[2]; 1 mg/kg into vein over 30 minutes
  Basilar artery diameter (diameter before blood injection: 100%): 58.0%

## O=C([O-])/C=C/c1ccc(Cn2ccnc2)cc1.[Na+] [sodium ozagrel]
[3]
  inhibition of cerebral infarction (size measured histopathologically, fifth day): not inhibited

## CC(C)NCC(O)COc1cccc2ccccc12 (centres unmarked) [propranolol]
[1]; propranolol 100 mg/kg orally
  improvement of ST segment depression (index of myocardial ischemia): not improved
